Measured values: ChEMBL document CHEMBL4261622, “Monosaccharide inhibitors targeting carbohydrate esterase family 4 de-N-acetylases” (Bioorg Med Chem, 2018)
The source made the active and inactive calls. No cut-off for these calls is given here.

Columns and labels:
[1] = target: T1, Poly-beta-1,6-N-acetyl-D-glucosamine N-deacetylase (Escherichia coli (strain K12), UniProt P75906); assay: (§1) Inhibition of Escherichia coli PgaB expressed in Escherichia coli BL21 (DE3) cells transformed with pET28 plasmid coding for PgaB42-655 using acetoxymethyl-4-methylumbelliferone as substrate measured at 2 min intervals over 10 mins in presence of CoCl2 by fluorescence assay
T1 sequence (P75906 whole entry): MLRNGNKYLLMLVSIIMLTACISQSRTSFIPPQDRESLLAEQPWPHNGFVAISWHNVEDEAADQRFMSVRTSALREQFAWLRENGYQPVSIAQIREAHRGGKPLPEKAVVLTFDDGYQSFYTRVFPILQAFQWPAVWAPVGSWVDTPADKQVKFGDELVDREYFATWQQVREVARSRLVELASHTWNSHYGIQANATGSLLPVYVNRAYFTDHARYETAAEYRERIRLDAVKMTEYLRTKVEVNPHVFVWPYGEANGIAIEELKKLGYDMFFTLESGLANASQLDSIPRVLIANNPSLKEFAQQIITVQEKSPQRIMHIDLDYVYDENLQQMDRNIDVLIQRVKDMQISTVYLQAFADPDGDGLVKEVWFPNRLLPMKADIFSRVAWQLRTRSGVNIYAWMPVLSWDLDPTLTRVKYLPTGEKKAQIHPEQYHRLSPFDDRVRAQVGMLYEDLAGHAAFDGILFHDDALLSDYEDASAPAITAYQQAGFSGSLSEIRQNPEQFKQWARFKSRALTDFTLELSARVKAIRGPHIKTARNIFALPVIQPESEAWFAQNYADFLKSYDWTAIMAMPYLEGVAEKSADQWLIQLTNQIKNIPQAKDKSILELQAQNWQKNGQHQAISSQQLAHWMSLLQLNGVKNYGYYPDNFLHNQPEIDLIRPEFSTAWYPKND

[2] = target: T2, Peptidoglycan-N-acetylglucosamine deacetylase (Streptococcus pneumoniae (strain ATCC BAA-255 / R6), UniProt Q8DP63); assay: (§2) Inhibition of Streptococcus pneumoniae Pgda expressed in Escherichia coli BL21 (DE3) cells transformed with pET28bSpPgdA232-431 plasmid using acetoxymethyl-4-methylumbelliferone as substrate measured at 5 min intervals over 60 mins in presence of CoCl2 by fluorescence assay
T2 sequence (Q8DP63 whole entry): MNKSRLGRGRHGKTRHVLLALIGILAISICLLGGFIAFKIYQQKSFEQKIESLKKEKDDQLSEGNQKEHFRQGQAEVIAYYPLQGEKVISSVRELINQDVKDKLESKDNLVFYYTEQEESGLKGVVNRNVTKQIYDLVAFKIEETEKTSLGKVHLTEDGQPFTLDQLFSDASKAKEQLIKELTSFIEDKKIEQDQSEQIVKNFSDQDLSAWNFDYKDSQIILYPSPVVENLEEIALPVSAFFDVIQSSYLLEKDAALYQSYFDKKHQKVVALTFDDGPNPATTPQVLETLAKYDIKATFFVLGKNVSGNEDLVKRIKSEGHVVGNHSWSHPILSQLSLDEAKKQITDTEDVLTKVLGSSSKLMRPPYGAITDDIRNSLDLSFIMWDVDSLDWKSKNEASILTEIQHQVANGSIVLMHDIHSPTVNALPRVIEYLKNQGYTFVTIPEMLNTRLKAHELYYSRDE

[3] = target: T1, Poly-beta-1,6-N-acetyl-D-glucosamine N-deacetylase; assay: as §1, with “using compound pre-incubated with 1Eq DTT and using” for “using”
[4] = target: T1, Poly-beta-1,6-N-acetyl-D-glucosamine N-deacetylase; assay: as §1, with “using compound pre-incubated with 1Eq DTT and using” for “using”, “ZnCl2” for “CoCl2”
[5] = target: T2, Peptidoglycan-N-acetylglucosamine deacetylase; assay: as §2, with “plasmid using compound pre-incubated with 1Eq DTT and” for “plasmid”
[6] = target: T2, Peptidoglycan-N-acetylglucosamine deacetylase; assay: as §2, with “using compound pre-incubated with 1Eq DTT and using” for “using”, “ZnCl2” for “CoCl2”
[7] = target: T3, Poly-beta-1,6-N-acetyl-D-glucosamine N-deacetylase (Escherichia coli (strain K12)) (UniProt P75906); assay: Substrate activity at Escherichia coli PgaB at 1 mM in presence of CoCl2 or ZnCl2 by fluorescamine assay deacetylase assay
T3 sequence (whole entry): T1 sequence (P75906 whole entry)

[8] = target: T4, Peptidoglycan-N-acetylglucosamine deacetylase (Streptococcus pneumoniae (strain ATCC BAA-255 / R6)) (UniProt Q8DP63); assay: Substrate activity at Streptococcus pneumoniae Pgda at 1 mM in presence of CoCl2 or ZnCl2 by fluorescamine assay deacetylase assay
T4 sequence (whole entry): T2 sequence (Q8DP63 whole entry)

[9] = target: T3, Poly-beta-1,6-N-acetyl-D-glucosamine N-deacetylase (Escherichia coli (strain K12)); assay: Substrate activity at Escherichia coli PgaB at 5 mM in presence of CoCl2 or ZnCl2 by fluorescamine assay deacetylase assay
[10] = target: T4, Peptidoglycan-N-acetylglucosamine deacetylase (Streptococcus pneumoniae (strain ATCC BAA-255 / R6)); assay: Substrate activity at Streptococcus pneumoniae Pgda at 5 mM in presence of CoCl2 or ZnCl2 by fluorescamine assay deacetylase assay
[11] = target: T3, Poly-beta-1,6-N-acetyl-D-glucosamine N-deacetylase (Escherichia coli (strain K12)); assay: Inhibition of Escherichia coli PgaB expressed in Escherichia coli BL21 (DE3) cells transformed with pET28 plasmid coding for PgaB42-655 at 10 mM using acetoxymethyl-4-methylumbelliferone as substrate measured at 2 min intervals over 10 mins in presence of CoCl2 by fluorescence assay
[12] = target: T4, Peptidoglycan-N-acetylglucosamine deacetylase (Streptococcus pneumoniae (strain ATCC BAA-255 / R6)); assay: Inhibition of Streptococcus pneumoniae Pgda expressed in Escherichia coli BL21 (DE3) cells transformed with pET28bSpPgdA232-431 plasmid at 10 mM using acetoxymethyl-4-methylumbelliferone as substrate measured at 5 min intervals over 60 mins in presence of CoCl2 by fluorescence assay
[13] = target: T4, Peptidoglycan-N-acetylglucosamine deacetylase (Streptococcus pneumoniae (strain ATCC BAA-255 / R6)); assay: Inhibition of Streptococcus pneumoniae Pgda expressed in Escherichia coli BL21 (DE3) cells transformed with pET28bSpPgdA232-431 plasmid at 5 mM using acetoxymethyl-4-methylumbelliferone as substrate measured at 5 min intervals over 60 mins in presence of CoCl2 by fluorescence assay
[14] = target: T4, Peptidoglycan-N-acetylglucosamine deacetylase (Streptococcus pneumoniae (strain ATCC BAA-255 / R6)); assay: Inhibition of Streptococcus pneumoniae Pgda expressed in Escherichia coli BL21 (DE3) cells transformed with pET28bSpPgdA232-431 plasmid at 200 to 1200 uM using acetoxymethyl-4-methylumbelliferone as substrate measured at 5 min intervals over 60 mins in presence of 3 uM ZnCl2 by fluorescence assay
[15] = target: T4, Peptidoglycan-N-acetylglucosamine deacetylase (Streptococcus pneumoniae (strain ATCC BAA-255 / R6)); assay: Inhibition of Streptococcus pneumoniae Pgda expressed in Escherichia coli BL21 (DE3) cells transformed with pET28bSpPgdA232-431 plasmid at 200 to 1200 uM using acetoxymethyl-4-methylumbelliferone as substrate measured at 5 min intervals over 60 mins in presence of 6 uM ZnCl2 by fluorescence assay
[16] = target: T4, Peptidoglycan-N-acetylglucosamine deacetylase (Streptococcus pneumoniae (strain ATCC BAA-255 / R6)); assay: Inhibition of Streptococcus pneumoniae Pgda expressed in Escherichia coli BL21 (DE3) cells transformed with pET28bSpPgdA232-431 plasmid at 200 to 1200 uM using acetoxymethyl-4-methylumbelliferone as substrate measured at 5 min intervals over 60 mins in presence of 200 uM ZnCl2 by fluorescence assay
[17] = target: T2, Peptidoglycan-N-acetylglucosamine deacetylase; assay: Partial mixed inhibition of Streptococcus pneumoniae apo-Pgda using N,N',N\"-triacetyl chitotriose as substrate in presence of ZnCl2 by fluorescamine assay deacetylase assay based Dixon plot analysis

Row | SMILES | IC50 [1] [mM] | IC50 [2] [mM] | Activity [9] | Activity [10] | also measured
1 | NS(=O)(=O)C[C@H]1[C@H](OCc2ccccc2)O[C@H](CO)[C@@H](O)[C@@H]1O | > 10 | > 10 | – | – | –
2 | CS(=O)(=O)N[C@H]1[C@H](OCc2ccccc2)O[C@H](CO)[C@@H](O)[C@@H]1S | – | – | – | – | IC50 [3]: > 1 mM; IC50 [4]: > 1 mM; IC50 [5]: > 1 mM; IC50 [6]: > 1 mM; Activity [7]: inactive; Activity [8]: inactive
3 | CC(=S)N[C@H]1[C@H](OCc2ccccc2)O[C@H](CO)[C@@H](O)[C@@H]1O | > 10 | > 10 | inactive | inactive | –
4 | CC(=O)N[C@H]1[C@H](OCc2ccccc2)O[C@H](CO)[C@@H](O)[C@@H]1N=[N+]=[N-] | > 5 | > 5 | – | – | Activity [7]: inactive; Activity [8]: inactive
5 | COP(=O)(O)C[C@H]1[C@H](OCc2ccccc2)O[C@H](CO)[C@@H](O)[C@@H]1O | > 10 | 4.9 | – | – | –
6 | O[C@H](CS)[C@H](O)CS | – | – | – | – | inhibition [11]: inactive; inhibition [12]: inactive
7 | CC(=O)N[C@H]1[C@H](OCc2ccccc2)O[C@H](CO)[C@@H](O)[C@@H]1S | – | – | inactive | inactive | IC50 [3]: > 8 mM; IC50 [4]: 1.1 mM; IC50 [5]: > 8 mM; IC50 [6]: 5 mM
8 | COP(=O)(O)C[C@H]1[C@H](OCc2ccccc2)O[C@H](CO)[C@@H](OCc2ccccc2)[C@@H]1O | > 5 | > 5 | – | – | inhibition [13]: inactive
9 | CC(=S)N[C@H]1[C@H](OCc2ccccc2)O[C@H](CO)[C@@H](O)[C@@H]1S | – | – | – | – | inhibition [14]: inactive; inhibition [15]: Active; inhibition [16]: Active; Ki [17]: 0.0029 mM; IC50 [3]: > 1 mM; IC50 [4]: 0.14 mM; IC50 [5]: > 1 mM; IC50 [6]: 0.011 mM; Activity [7]: inactive; Activity [8]: inactive
10 | COP(=O)(O)C[C@H]1[C@H](OCc2ccccc2)O[C@H](COCc2ccccc2)[C@@H](O)[C@@H]1O | > 5 | > 5 | – | – | inhibition [13]: inactive
11 | NS(=O)(=O)C[C@H]1[C@H](OCc2ccccc2)O[C@H](CO)[C@@H](OCc2ccccc2)[C@@H]1O | > 5 | > 5 | – | – | –
12 | CC(=O)N[C@H]1[C@H](OCc2ccccc2)O[C@H](CO)[C@@H](O)[C@@H]1N | > 10 | > 10 | inactive | inactive | –
13 | CC(=O)N[C@H]1[C@H](OCc2ccccc2)O[C@H](CO)[C@@H](O)[C@@H]1O | > 20 | 11 | inactive | inactive | –
